Source: patent publication US20160003808A1, “MOLECULAR TARGETS AND COMPOUNDS, AND METHODS TO IDENTIFY THE SAME, USEFUL IN THE TREATMENT OF DISEASES ASSOCIATED WITH EPITHELIAL MESENCHYMAL TRANSITION” (GALAPAGOS NV, priority 2013, published 2016)

How the values were obtained:
[1] = test system: Fibronectin (FN); experiment: EMT on target screen, FN read-out; assay type: cell-based, human; conditions: for OT FN Screen Z-score 2: as E11, duplicate 2; for Both (shRNA is a hit again in both OT assays, Yes/No): on target validation, Table 16; for OT FN Screen Z-score 1: robust Z-score, HBEC donor Br299, duplicate 1, cut-off Z ≦ −1.25
[2] = test system: MMP10; experiment: EMT on target screen, MMP10 read-out; assay type: cell-based, human; conditions: for OT MMP10 Screen Z-score 2: as E13, duplicate 2; for OT MMP10 Screen Z-score 1: robust Z-score, HBEC donor Br299, duplicate 1, cut-off Z ≦ −1.25
[3] = test system: HBEC

Row | Substance | OT FN Screen Z-score 2 [1] | Both (shRNA is a hit again in both OT assays, Yes/No) [1] | OT FN Screen Z-score 1 [1] | OT MMP10 Screen Z-score 2 [2] | OT MMP10 Screen Z-score 1 [2] | OT CTB assay Z-score 1 [3] | OT CTB assay Z-score 2 [3]
1 | 75 (TCGCTAGGTATGAATAACC; chemistry not given here) [compound 75] | -2.58 | yes | -2.04 | -0.75 | 0.15 | -0.46 | -2.90
2 | 72 (GAGTTGGACAGTGGAGGAC; chemistry not given here) [compound 72] | -7.31 | yes | -3.99 | -6.59 | -4.52 | -3.13 | -4.22
3 | 46 (ACTTCTGAGAGGTCACAGC; chemistry not given here) [compound 46] | -7.86 | yes | -8.84 | -2.42 | -2.20 | -2.43 | -5.13
4 | 71 (CACGGCTCTCCTATTTGTC; chemistry not given here) [compound 71] | -1.64 | no | -1.73 | 0.95 | 0.88 | -5.58 | -4.56
5 | 54 (GACTGGAAAGCGACGGGTC; chemistry not given here) [compound 54] | -3.15 | no | -3.47 | 0.94 | 0.62 | -4.02 | -5.83
6 | 64 (GTCCAACAGAAGTACGTGC; chemistry not given here) [compound 64] | -2.52 | no | -3.09 | 1.09 | -0.07 | 1.00 | -1.33
7 | 56 (TGATGGTTACCGCAAGATC; chemistry not given here) [compound 56] | -3.69 | yes | -2.74 | -5.05 | -3.35 | 0.64 | -2.23
8 | 49 (GAGGATGCCATTAAGTATT; chemistry not given here) [compound 49] | -1.84 | no | -1.75 | 0.87 | 0.57 | -0.78 | -0.88
9 | 51 (GGATCTTGGGTCCTATCCC; chemistry not given here) [compound 51] | -3.08 | no | -2.90 | -0.23 | -0.02 | -0.73 | -2.03
10 | 47 (GAACACGTACAAAGTCATT; chemistry not given here) [compound 47] | -5.03 | no | -4.88 | -6.24 | -11.24 | -7.55 | -4.92
11 | 66 (GAAGGAGCTACTCATCTTC; chemistry not given here) [compound 66] | -4.82 | yes | -2.81 | 0.70 | -1.93 | -2.25 | -4.39
12 | 63 (GAATTTCAGAAGTACTGTG; chemistry not given here) [compound 63] | -3.76 | no | -3.62 | 2.02 | 1.53 | -2.12 | -3.06
13 | 55 (AGGCTCACTTGCCTTTGGC; chemistry not given here) [compound 55] | -6.07 | yes | -4.43 | 0.18 | 0.92 | -4.29 | -8.29
14 | 62 (CAGATTCCATCTGATGGCC; chemistry not given here) [compound 62] | -5.21 | yes | -4.99 | -2.79 | -2.75 | -3.19 | -2.25
